Experimental data: article PMC10135567, “New Indole-3-Propionic Acid and 5-Methoxy-Indole Carboxylic Acid Derived Hydrazone Hybrids as Multifunctional Neuroprotectors” (Antioxidants, 2023)

How the values were obtained:
[1] = Fe(II)-induced lipid peroxidation assay (LP assay, TBARS); format: biochemical; settings: 90 µM, lecithin 1 mg/mL, 0.1 mM FeCl2; lower = stronger antioxidant
Experimental: (§1) The lipid peroxidation assay and a modification of the deoxyribose-degradation assay were used. Two types of measurement compositions in phosphate buffer (PB–K2HPO4/KH2PO4, pH 7.4) were prepared for both tests: (i) samples, containing the biologically relevant molecules (lecithin emulsion or deoxyribose), iron, and the tested hydrazones at the concentrations indicated below the figures; and (ii) controls, in which the tested hydrazones were omitted. The data for the sample activity were presented as a percentage of the control measurement.
The thiobarbituric-acid reactive-substance colorimetric test was performed in a model system of Fe(II)-induced lipid peroxidation as an emulsion prepared from egg yolk phospholipids. Each sample contained 1 mg/mL of lecithin. LP was initiated using 0.1 mM FeCl2. After 30 min incubation at 37 °C, 0.5 mL of 2.8% trichloroacetic acid solution and 0.5 mL of 0.5% thiobarbituric acid solution were added, following a second incubation at 100 °C for 20 min. Centrifugation at 3000 rpm for 20 min at 4 °C was performed, and we determined the absorbance value of the supernatant at 532 nm via Shimadzu UV-1601 UV-VIS spectrophotometer.

[2] = MTT cell viability assay (cytotoxicity), bEnd3; format: cell-based, mouse; settings: mouse, bEnd3 brain endothelial cells, 1–500 µM
Experimental: Mouse-brain endothelial cell line bEnd3 [36] (CRL-2299) was purchased from the American Type Culture Collection (ATCC, Manassas, VA, USA). The cells were cultured in DMEM (Dulbeco’s modified essential medium) (cat. no. 30-2002, ATCC, Manassas, VA, USA), supplemented with 10% heat-inactivated FBS (cat. no. F7524, Sigma-Aldrich Co. LLC, St. Louis, MO, USA), 1 mM L-glutamine (cat. no. G7513, Sigma-Aldrich Co. LLC, St. Louis, MO, USA) and 1× Antibiotic-Antimycotic solution (penicillin: streptomycin: amphotericin B (100 U/mL: 0.10 mg/mL: 0.25 µg/mL) (cat. no. A5955, Sigma-Aldrich Co. LLC, St. Louis, MO, USA) at 37 °C in a humidified atmosphere containing 5% CO2. The cells were passaged in 75 cm^2 flasks every 3–5 days via trypsinization (StableCell Trypsin solution, cat. no. T2610, Sigma-Aldrich Co. LLC, St. Louis, MO, USA).
(§2) Cell viability was assessed via the mitochondrial reductase-dependent reaction of (3-(4,5-dimethylthiazol-2-yl)- 2,5-diphenyl tetrazolium bromide (MTT, cat. no. 475989, Calbiochem, Merck KGaA, Darmstadt, Germany). The SH-SY5Y and bEnd3 cell lines were seeded in 96-well plates at a density of 0.7 × 10^4 (bEnd3) or 2 × 10^4 (SH-SY5Y) cells/well and allowed to adhere for 24 h at 37 °C, 5% CO2. Then, the cells were incubated with the compounds (1–500 μM) for a preset time (24 h). For the solvent, the control cells were treated with DMSO corresponding to the highest concentration of DMSO in the samples (0.5% DMSO) in order to exclude its cytotoxic effect on the cells. For each concentration, a set of at least 6 wells were used. After incubation, the solution from each well was exchanged with fresh culture medium (100 µL/well), containing the MTT reagent (0.5 mg/mL) and incubated for 3 h at 37 °C in a humidified atmosphere and 5% CO2. The obtained formazan crystals were dissolved in 100 µL/well of 5% formic acid in propan-2-ol solution (or DMSO). The absorbance was measured at 570 nm via multiplate reader Tecan Infinite F200 PRO (Tecan Trading AG., Männedorf, Switzerland) or Synergy 2 (BioTek Instruments, Inc., Highland Park, Winooski, VT, USA).
(§3) Both the SH-SY5Y and bEnd3 cells were treated with the test compounds in a concentration range from 1 to 500 µM for 24 h.

[3] = Fe(II)-induced deoxyribose degradation assay; format: biochemical; settings: 80 µM, 2-deoxyribose 0.5 mM, 0.1 mM FeCl2; lower = stronger antioxidant
Experimental: as §1
The deoxyribose (0.5 mM) damage was induced by adding FeCl2 (0.1 mM). The measurement compositions were incubated at 37 °C for 30 min. The next step comprised adding 0.5 mL of 2.8% trichloroacetic acid and 0.5 mL of thiobarbituric acid. Then, the samples were heated in boiling water for 20 min, and their absorbance was estimated at 532 nm (characteristic band for the generated chromophore) via Shimadzu UV-1601 UV-vis spectrophotometer.

[4] = MTT cell viability assay (cytotoxicity), SH-SY5Y; settings: human, SH-SY5Y neuroblastoma cells
Experimental: Neuroblastoma cell line SH-SY5Y (94030304) was acquired from the European Collection of Cell Cultures (ECACC, Salisbury, UK). Cells were cultured in a medium prepared with RPMI basic media supplemented with 10% heat-inactivated FBS (fetal bovine serum), 2 mM L-glutamine, 1% antibiotics (penicillin/streptomycin), and incubated at 37 °C in a humidified atmosphere containing 5% of CO2. The culture’s medium was replaced at a time interval of 2–3 days.
as §2, §3

[5] = system: isolated rat-brain synaptosomes; experiment: 6-OHDA-induced neurotoxicity in isolated rat synaptosomes, synaptosomal viability; format: cell-based; settings: Rattus norvegicus; 10 µM pre-incubation 30 min, then 150 µM 6-OHDA 1 h; read-out: synaptosomal viability (SV) preserved, as compared to 6-OHDA
Experimental: (§4) This neurotoxicity model was based on the metabolism and auto-oxidation of 6-hydroxy dopamine responsible for the reactive oxygen species and quinones generation, ultimately leading to neurotoxicity and neurodegeneration. The experiment was performed by pre-incubation of the synaptosomes with 10 µM of the compounds for 30 min, followed by the addition of 150 µM 6-hydroxy dopamine for induction of neurotoxicity. After 1 h, they were centrifuged twice for 1 min at 15,000 × g. After the second wash, the precipitates were resolved with buffer B and glucose.

[6] = Superoxide radical scavenging, xanthine/xanthine oxidase/NBT system; format: biochemical
Experimental: The 1 mL cuvette for the control contained 1 mM xanthine, 20 µL xanthine oxidase (100 IU/L), and 0.04 mM NBT [43, 44]. In the sample compositions, the tested hydrazones at different concentrations were added. All measurement compositions were incubated at 37 °C, and the absorbance was determined spectrophotometrically at 560 nm via Shimadzu UV-1601 UV-vis spectrophotometer.
The potential capability of the investigated compounds to prevent the superoxide-anion radical-induced NBT reduction was investigated spectrophotometrically by xanthine-oxidase assay. The assay was carried out at the final concentration of the tested compounds, at 1, 10, 50, and 100 µM.

[7] = Stability by UV-vis measurements at different pH; format: physicochemical; settings: 50 µM, pH 2, 4.5, 7.4 and 8.4, after 1, 2, 3 and 24 h
Experimental: The stability of the compounds was also considered a potential issue. Therefore, selected compounds (3a, 3d, 5d, and 5e at a concentration of 50 µM) were studied by UV-vis measurements under different pH conditions, including pH 2, 4.5, 7.4, and 8.4, to represent different physiological (gastric, intestinal, etc.) conditions.

[8] = O-phenanthroline Fe(II) chelation test; format: physicochemical; settings: 200 µM compound, FeCl2
Experimental: The Fe (II)-chelating activity of the tested hydrazones was determined by the O-phenanthroline method. A total of 1 mL sample solutions of 50 mM PB pH 7 contained 0.2 mM O-phenanthroline and 0.05 mM FeCl2 and 0.2 mM hydrazone. In the controls, the tested compounds were omitted. Absorbance was measured at 515 nm via GENESYS 50 UV-VIS spectrophotometer after incubation for 5 min at 37 °C. The data for the sample activity were presented as a percentage of the control measurement. Absorbance spectra of all the samples, the control, and the measurement compositions containing the tested hydrazones and Fe(II) at the concentrations used in the samples were measured.
To explain the results of both systems of Fe(II)-induced oxidative damage, we studied the potency of the tested compounds to chelate-iron (Fe(II)). This was studied by spectrophotometric determination of free iron (Fe(II)) using the ortho-phenanthroline test, as 1,10-phenantroline reacts rapidly with Fe(II) ions in weakly acidic media, generating an orange–red complex (ferroin) with characteristic absorbance spectra (molar absorptivity 1.10.104 (α = 0.20) at ~max 512 nm and a molar ratio 3:1 (R: Fe(II))). The generated complex was stable, and the bound Fe(II) was resistant to oxidation. Lower absorbance of the reaction mixture indicated higher Fe^2+-chelating activity.

[9] = system: isolated rat-brain synaptosomes; experiment: 6-OHDA-induced neurotoxicity in isolated rat synaptosomes, GSH level; format: cell-based; settings: 10 µM pre-incubation 30 min, then 150 µM 6-OHDA 1 h
Experimental: as §4

[10] = system: isolated rat-brain synaptosomes; experiment: Synaptosomal viability (MTT), substances administered alone; settings: 100 µM
Experimental: Preparation of the synaptosomes was carried out by multiple centrifugations using the Percoll gradient. Homogenization of the brains was performed in 10 volumes of cold buffer 1, which contained 5 mM HEPES and 0.32 M sucrose (pH = 7.4), followed by centrifugation at different speeds. For preparation of the gradient, the synaptosomes were isolated by Percoll reagent. Synaptosomes were resuspended and incubated in buffer 2, which contained 290 mM NaCl, 0.95 mM MgCl2x6H2O, 10 mM KCl, 2.4 mM CaCl2xH2O, 2.1 mM NaH2PO4, 44 mM HEPES, and 13 mM D-glucose. Incubations were performed in a 5% CO2 + 95% O2 atmosphere. The method of Lowry et al., using bovine serum albumin as a standard content, was applied for determination of synaptosomal protein [51].
Synaptosomal viability was monitored based on a (3-(4,5)-dimethylthiazol-2-yl)-2,5-diphenyl tetrazolium bromide) assay. After incubation with the compounds, synaptosomes were treated with 0.5 mg/mL solution of (3-(4,5)-dimethylthiazol-2-yl)-2,5-diphenyl tetrazolium bromide) for 10 min at […]. Then, the synaptosomes were centrifuged twice at 15,000× g for 1 min. The resulting formazan crystals were dissolved in DMSO (dimethyl sulfoxide), and the extinction was determined by spectrophotometric measurements at 580–660 nm. […]

[11] = target: T1, recombinant human MAO-B (hMAO-B) (Homo sapiens, UniProt P27338); experiment: hMAO-B enzyme activity inhibition (Amplex Red fluorimetric assay); format: biochemical; settings: 1 µM
T1 sequence (P27338 1-520): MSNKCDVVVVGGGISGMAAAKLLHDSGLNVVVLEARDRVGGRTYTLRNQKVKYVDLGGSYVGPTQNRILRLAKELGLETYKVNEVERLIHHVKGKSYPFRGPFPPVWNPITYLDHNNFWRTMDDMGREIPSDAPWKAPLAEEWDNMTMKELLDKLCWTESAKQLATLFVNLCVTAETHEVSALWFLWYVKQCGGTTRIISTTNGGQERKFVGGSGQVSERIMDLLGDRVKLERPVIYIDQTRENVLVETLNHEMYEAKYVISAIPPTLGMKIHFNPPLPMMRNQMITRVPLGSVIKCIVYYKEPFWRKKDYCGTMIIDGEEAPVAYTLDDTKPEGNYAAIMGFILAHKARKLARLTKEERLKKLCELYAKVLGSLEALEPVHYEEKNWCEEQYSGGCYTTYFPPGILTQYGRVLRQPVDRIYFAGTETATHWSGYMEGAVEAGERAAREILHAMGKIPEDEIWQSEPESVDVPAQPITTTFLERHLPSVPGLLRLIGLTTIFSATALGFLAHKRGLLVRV
Experimental: Amplex® UltraRed reagent [48] was used for detection of the hydrogen peroxide and peroxidase activity in biological samples and enzymes. In the presence of peroxidase, a red phosphorescent oxidation product, resorufin, was produced due to the 1:1 stoichiometric reaction of Amplex® Red with hydrogen peroxide. The analysis was conducted spectrophotometrically based on the high extinction coefficient of the color product. Using this method, small amounts of hydrogen peroxide (of the order of 10 pM in a volume of 100 µL) could be detected.
The following controls were used: pure MAO-B working solution in reaction buffer, MAO-B working solution containing hydrogen peroxide, and pure reaction buffer. The final concentration of the substances was 1 µM. […] At the end of the incubation period, the reaction was started by adding a 50 µL of a mix solution containing solutions of Amplex® Red reagent, horseradish peroxidase (HRP), and tyramine as a substrate for the enzyme in a reaction buffer, to each well on the 96-well plate.

[12] = system: red blood cells; experiment: Red blood cell hemolysis assay; format: cell-based, rat; settings: positive control, 20% Triton X-100, 1 h, 37 °C
Experimental: The potential of the test compounds to induce hemolysis was evaluated following the protocol described by Evans et al.. The blood was collected from the heart of male Wister rats. The red blood cells were separated from the blood by repeated centrifugation in 0.9% NaCl buffer and were resuspended in phosphate-buffered saline (PBS, pH 7.4). The test compounds in concentrations 10, 100, and 200 µM, a negative control (distilled water), and a positive control (20% Triton X-100) were pipetted into 96-well plates. Then, the erythrocyte suspension in PBS was added, and the plates were incubated for 1 h at 37 °C. After centrifugation (5 min at 500× g), the supernatant was transferred to new 96-well plates in order to measure hemoglobin absorbance at 430 nm on a Synergy 2 plate-reader (BioTek Instruments, Inc., Highland Park, Winooski, VT, USA). The obtained results were presented as a percentage of hemolysis relative to the hemoglobin absorbance values in the positive controls. Hemoglobin absorbance of negative controls was accepted as zero hemolysis. […]
Hemolysis assay, using red blood cells, is an essential part of the in vitro biocompatibility testing of new drug substances; and it was used as a screening method for the evaluation of potential in vivo toxicity. The release of hemoglobin was a definite sign of the cell lysis of the erythrocytes and could be measured spectrophotometrically. […]

O=C(CCc1c[nH]c2ccccc12)NN=Cc1cccc(O)c1O [Compound 3a, N′-(2,3-Dihydroxybenzylidene)-3-(1H-indol-3-yl)propanehydrazide]
absorbance ratio sample/control (lipid peroxidation) [1]: around 30%
IC50 at 24 h [2]: 356 µM
absorbance ratio, % of the controls (deoxyribose degradation) [3]: around 35%
IC50 at 24 h [4]: 120 µM
viability at 10 µM [5]: 44%
decrease of NBT reduction as compared to the controls ([6]; 100 µM (highest tested concentration)): less than 15%
melting point: 204 to 205 °C
stability (UV-vis spectra over time) [7]: stable over time
absorbance at 515 nm compared to the controls (Fe(II) chelation) [8]: identical absorbance values, as compared to the controls

O=C(O)CCc1c[nH]c2ccccc12 [IPA, Indole-3-propionic acid]
absorbance ratio sample/control (lipid peroxidation) [1]: further amelioration of the antioxidant properties was not observed, as compared to melatonin
GSH level preserved, as compared to 6-OHDA [9]: 50%
reduction of synaptosomal viability (SV) vs. non-treated synaptosomes [10]: 47%
IC50 at 24 h [4]: > 500 µM
reduction of hMAO-B enzyme activity vs. pure hMAO-B [11]: 25%
viability at 10 µM [5]: 56%
absorbance ratio (NBT reduction, % of control) ([6]; 1, 10, 50 and 100 µM): did not influence the estimated absorbance ratio at any of the tested concentrations
absorbance at 515 nm compared to the controls (Fe(II) chelation) [8]: statistically identical absorbance values at 515 nm, as compared to the controls

Triton X-100
hemolysis [12]: 100%
